Reference: PMC4778863, “A Four-Point Screening Method for Assessing Molecular Mechanism of Action (MMOA) Identifies Tideglusib as a Time-Dependent Inhibitor of Trypanosoma brucei GSK3β” (PLoS Neglected Tropical Diseases, 2016)
Read-outs that look alike come from different tables or passages of the source. Blank lines part the entries; values can stand above or below the molecule they belong to.

Tests used:
TbGSK3β [1] = target: T1, TbGSK3β (Trypanosoma brucei brucei, UniProt Q388M1); assay: biochemical; assay type: biochemical; settings: for Ratio Preinc/no preinc: % inhibition at 30 min preincubation / % inhibition at 0 min preincubation at 10 μM ATP; for ATP competition following preincubation / ATP competition without preincubation: 10 μM versus 100 μM ATP; for ATP competition following preincubation: 30 min preincubation; for time dependence: effect of 30 min preincubation on TbGSK3β activity: four point MMOA assay, 10 μM and 100 μM ATP
T1 construct: Full-length TbGSK3β (Gene DB ID Tb927.10.13780); 6X His (C); made in house; host or cells: BL21 (DE3) E. coli
T1 sequence (Q388M1 1-352): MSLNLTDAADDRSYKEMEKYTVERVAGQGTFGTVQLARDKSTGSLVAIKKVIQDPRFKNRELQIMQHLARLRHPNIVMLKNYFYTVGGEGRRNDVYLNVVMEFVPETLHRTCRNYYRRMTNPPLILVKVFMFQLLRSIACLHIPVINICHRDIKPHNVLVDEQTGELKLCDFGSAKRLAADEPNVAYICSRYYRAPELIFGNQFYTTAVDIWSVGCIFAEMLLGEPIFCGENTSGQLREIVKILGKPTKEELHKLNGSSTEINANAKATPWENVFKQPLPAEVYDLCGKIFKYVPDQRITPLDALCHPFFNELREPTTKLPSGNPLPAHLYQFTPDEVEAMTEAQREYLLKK
Description: TbGSK3β activity was measured by following the ADP formation associated with the phosphorylation of GSM peptide and detected with ADP-Glo at 23°C. The enzyme reaction was conducted in a volume of 20 μL in a buffer containing 20 mM NaCl, 15 mM HEPES pH 7.4, 1 mM EGTA, 10 mM MgCl2, 0.02% Tween. These assays contained GSM at 10μM (approximating Km) or 80 μM (approximating Vmax). ATP was added at 10 μM and 100 μM to approximate Km and Vmax, respectively.
All reactions were incubated for 5 minutes in microcentrifuge tubes, and reactions were terminated at 80°C for 4 min. Of 20 μL reactions, 17.5 μL were transferred into 384 well-plates. Promega ADP-Glo procedures were carried out and phosphorylation measured by Luminoskan Ascent (Thermo Labsystems, Waltham MA). For pre-incubation experiments, TbGSK3β was preincubated at room temperature with inhibitor, GSM and buffer for 30 min. Inhibitors were added in DMSO to a final concentration of DMSO in the reactions of <5%. The kinase reaction was then started by adding ATP. For non-preincubation reactions, the kinase reactions were started by adding TbGSK3β to a mixture containing inhibitor, ATP, GSM and buffer. DMSO was added to all control reactions.
IC50 for inhibition TbGSK3β was determined as a function of preincubation time (Fig 3). Preincubated reactions were preincubated with inhibitor, TbGSK3β, GSM peptide, and buffer at room temperature; after 30 minutes reactions were initiated with the addition of ATP. Reactions with 0 min preincubation were initiated with the addition of TbGSK3β. Reactions were run for 5 min at room temperature, and stopped at 80°C. ADP product formation was measured by ADP-Glo kit.
Preincubated reactions were preincubated with inhibitor, TbGSK3β, GSM peptide, and buffer at room temperature; after 30 minutes reactions were initiated with the addition of ATP. Reactions with 0 min preincubation were initiated with the addition of TbGSK3β. Reactions were run for 5 min at room temperature, and stopped heat at 80°C, followed by ice bath, and ADP product formation was measured by ADP-Glo kit. All concentrations of tideglusib and controls with and without TbGSK3β were kept at 1% DMSO. Black = 30 minute preincubation Grey = 0 minute preincubation.
Time dependent inhibition was evaluated by preincubation of TbGSK3β with 60 nM tideglusib and 6 nM GW-8510 with 10μM and 100μM ATP. […] (B). […] All reactions preincubated or not preincubated with TbGSK3β for 30 min at room temperature. Experiments run with 10μM GSM peptide, 10μM ATP, and buffer. Minute preincubation (30 min) was preincubated with inhibitor, TbGSK3β, GSM peptide, and buffer. ATP was mixed to initiate reaction. No preincubation contained inhibitor, GSM peptide, ATP, and buffer. The reaction was initiated with TbGSK3β. Reactions were run at room temperature for 5 min and stopped at 80°C. ADP formed was measured by ADP-Glo kit. Values are mean +/- standard error. N = 3 for each experiment and experiments were run in duplicates. Control reactions contained DMSO and background was determined using a zero time incubation and subtracted from all reactions. Black = 30 min preincubation Grey = No preincubation.

[2] = tested on: T. brucei brucei strain 427; settings: cited from earlier work
TbGSK3β [3] = target: T1, TbGSK3β; assay: Irreversibility: TbGSK3β activity following 100-fold dilution; assay type: biochemical; settings: 100 nM inhibitor preincubated 30 min with 50 nM TbGSK3β, diluted 100 fold into 100 μM ATP, 80 μM GSM; up to 2 hr
Description: Tideglusib and GW8510 were evaluated for irreversibility by measuring the TbGSK3β activity following a 100-fold dilution with reaction buffer. In these experiments tideglusib and GW8510 [100 nM] were preincubated with 50 nM TbGSK3β for 30 min at which time the reaction was diluted 100 fold into a solution containing 100 μM ATP and 80 μM GSM. The activity was then measured for up to two hours (Fig 6). […] The final concentration of tideglusib and GW8510 following dilution was 1 nM.
Tideglusib [100 nM, GW8510 [100 nM] and DMSO were preincubated with 50 nM TbGSK3 for 30 min. After a 100 fold dilution activity was measured and compared to DMSO containing reaction. Data expressed percent inhibition of DMSO activity. Data represent the average of two separate experiments for GW8510 and three for tideglusib. All points in each experiment were run in duplicate.

[4] = cited from earlier work
Trypanosomes = assay: Trypanosome viability after short term (6 hour) exposure and wash-out; assay type: cell-based, Trypanosoma brucei; settings: for trypanosome proliferation/viability after removal of drug following 6 hour exposure: drug-free medium, monitored for 44 hours
Description: The effect of tideglusib on trypanosome viability after short term exposure was evaluated to determine if the molecule is cidal or cytostatic.
Fig 9 Trypanosome viability after short term exposure with tideglusib. Trypanosomes (5 x 10^5/mL in HMI-9 medium) were treated with pentamidine (or water solvent control) or tideglusib (5 μM, 10 μM, or DMSO solvent control) for 6 hours (37°C, 5% CO2) and then cultured in drug-free treatment as detailed in panel (A). Trypanosome densities were determined after 6 hour treatment (B), and the drugs washed from the cells by centrifugation and resuspension in fresh medium (to a density of 0.5 x 10^5/mL). Trypanosome proliferation in the fresh medium was monitored for 44 hours (37°C, 5% CO2) (C). Error between four separate cultures are shown.

[5] = design: method as in PMID 19523516; settings: mice; oral administration; cited from earlier work
[6] = tested on: Bloodstream form Trypanosoma brucei; assay: Parasite assay: trypanosome proliferation, 48 hours, Coulter Counter; assay type: cell-based, strain CA427; settings: read-out: GI50 (concentration at which trypanosome proliferation was inhibited by 50%)
human GSK3β = tested on: human GSK3β; design: method as in PMID 22102280; settings: following preincubation; read-out: IC50 against human GSK3β; cited from earlier work
[7] = substrate: CC(C)C[C@H](NC(=O)[C@H](CO)NC(=O)[C@@H]1CCCN1C(=O)[C@H](CO)NC(=O)[C@@H]1CCCN1C(=O)[C@@H]1CCCN1C(=O)[C@@H](NC(=O)[C@H](CO)NC(=O)[C@H](C)NC(=O)[C@@H]1CCCN1C(=O)[C@H](CCCNC(=N)N)NC(=O)[C@H](CCCNC(=N)N)NC(=O)[C@@H](N)CCCNC(=N)N)C(C)C)C(=O)N[C@@H](CO)C(=O)N[C@@H](CCCNC(=N)N)C(=O)N[C@@H](Cc1c[nH]cn1)C(=O)N[C@@H](CO)C(=O)N[C@@H](COP(=O)(O)O)C(=O)N[C@@H](Cc1c[nH]cn1)C(=O)N[C@@H](CCC(N)=O)C(=O)N[C@@H](CCCNC(=N)N)C(=O)N[C@@H](CCCNC(=N)N)C(=O)O; assay: purified protein, by the assay type; assay type: biochemical; settings: other: substrate versus rate plots (Fig 2); pH 7.4
[8] = IC50, 10 μM ATP and 10 μM GSM, ± standard deviation, n = 3
[9] = 10 μM ATP and 10 μM GSM, ± standard deviation, n = 3, read-out: IC50
[10] = IC50 for inhibition TbGSK3β, non-preincubated reactions, 0 min preincubation, 10 μM GSM, 10 μM ATP, kinase 10 nM
[11] = IC50 for inhibition TbGSK3β, preincubated reactions, 30 min preincubation with inhibitor, TbGSK3β, GSM, 10 μM GSM, 10 μM ATP, kinase 10 nM

Molecule: Nc1ncnc2c1ncn2[C@@H]1O[C@H](COP(=O)(O)OP(=O)(O)OP(=O)(O)O)[C@@H](O)[C@H]1O [ATP]
- Km (TbGSK3β [1]; substrate versus rate plots (Fig 2)): 21 µM

Molecule: Cc1cc(Nc2nc(N[C@@H](C)c3ccc(F)cc3)c(C#N)cc2F)n[nH]1 [AZ960]
- IC50 (TbGSK3β [1]; [8]): 4100 ± 1270 nM

Molecule: Cc1c[nH]c(-c2cnc(NCCNc3ccc(C#N)cn3)nc2-c2ccc(Cl)cc2Cl)n1 [CT99021]
- IC50 (TbGSK3β [1]; [9]): 200 ± 80 nM
- Ratio Preinc/no preinc (TbGSK3β [1]): 0.97

Molecule: O=C1Nc2ccc3ncsc3c2/C1=C/Nc1ccc(S(=O)(=O)Nc2ccccn2)cc1 [GW8510]
- EC50 ([2]; 48 hr, read-out: EC50 in parasite growth assay): 119 nM
- EC50 ([2]; read-out: cellular activity against T. brucei): 120 nM
- enzyme activity following 100-fold dilution (reversibility) (TbGSK3β [3]): enzyme activity was recovered
- percent inhibition of activity at lower ATP (TbGSK3β [1]; 10 μM ATP, irrespective of preincubation time, four point MMOA assay (Fig 4)): 67%
- ATP competition following preincubation (TbGSK3β [1]): competitive
- ATP competition without preincubation (TbGSK3β [1]; no preincubation): competed with ATP
- percent inhibition of activity at higher ATP (TbGSK3β [1]; 100 μM ATP, irrespective of preincubation time, four point MMOA assay (Fig 4)): 28%
- IC50 (TbGSK3β [1]; [10]): 15.1 nM
- IC50 (TbGSK3β [1]; [11]): 14.5 nM
- time dependence: effect of 30 min preincubation on TbGSK3β activity (TbGSK3β [1]): no effect

Molecule: Cc1cc(Nc2cc(CN3CCOCC3)c3nc(C)c(Cc4ccc(Cl)cc4F)n3n2)n[nH]1 [LY278544]
- IC50 (TbGSK3β [1]; [9]): 500 ± 120 nM
- Ratio Preinc/no preinc (TbGSK3β [1]): 0.83

- IC50 (TbGSK3β [1]; [9]): 600 ± 140 nM
- Ratio Preinc/no preinc (TbGSK3β [1]): 1
Molecule: Nc1cccc(-c2cc3c(Oc4cccc(O)c4)ncnc3[nH]2)c1 [TWS119]

Molecule: O=c1sn(-c2cccc3ccccc23)c(=O)n1Cc1ccccc1 [Tideglusib]
- tolerability in phase II studies ([4]; Alzheimer's disease and progressive supranuclear palsy): well-tolerated
- tolerability in clinical trial ([4]; escalating doses of up to 1000 mg/day, 30 Alzheimer's patients, 6 weeks): generally well tolerated
- trypanosome growth during 6 hour treatment (Trypanosomes; 5 or 10 μM, high trypanosome density 5 x 10^5/mL): markedly slowed trypanosome growth
- cidal or cytostatic (Trypanosomes; high trypanosome cell densities): cytostatic
- Blood levels (molar) [5]: ~6.7 µM
- GI50 [6]: 2300 nM
- ATP competition following preincubation (TbGSK3β [1]): non-competitive behavior
- ATP competition without preincubation (TbGSK3β [1]; no preincubation): competed with ATP
- IC50 (TbGSK3β [1]; [11]): 43 nM
- time dependence: effect of 30 min preincubation on TbGSK3β activity (TbGSK3β [1]): decreased the enzyme activity following preincubation

Molecule: N=C(N)c1ccc(OCCCCCOc2ccc(C(=N)N)cc2)cc1 [pentamidine]
- trypanosome proliferation/viability after removal of drug following 6 hour exposure (Trypanosomes): killed all observed trypanosomes

B1: TbGSK3β (Trypanosoma brucei brucei TREU927) (protein)
chain: T1 sequence (Q388M1 1-352)
notes: Full-length TbGSK3β (Gene DB ID Tb927.10.13780); 6X His (C); made in house; host or cells: BL21 (DE3) E. coli
- Km [7]: 23 µM
